The record followed here is BindingDB's records for patent US10738057 (Incyte Corporation, 2020).

Bounds are passed on as bounds.

In assay [1] the target is Phosphatidylinositol 4,5-bisphosphate 3-kinase catalytic subunit gamma isoform (Homo sapiens, UniProt P48736). The assay can be described thus: Scintillation Proximity Assay. From the text:
PI3K-γ: [γ-33P]ATP (10 mCi/mL) and Wheat Germ Agglutinin (WGA) YSi SPA Scintillation Beads was purchased from PerkinElmer (Waltham, Mass.). Lipid kinase substrate, D-myo-Phosphatidylinositol 4,5-bisphosphate (PtdIns(4,5)P2)D (+)-sn-1,2-di-O-octanoylglyceryl, 3-O-phospho linked (PIP2), CAS 204858-53-7, was purchased from Echelon Biosciences (Salt Lake City, Utah). PI3Kγ (p110γ) Recombinant Human Protein was purchased from Life technology (Grand Island, N.Y.). ATP, MgCl2, DTT, EDTA, MOPS and CHAPS were purchased from SigmaAldrich (St. Louis, Mo.).The kinase reaction was conducted in polystyrene 384-well Greiner Bio-one white plate from Thermo Fisher Scientific in a final volume of 25 μL. Inhibitors were first diluted serially in DMSO and added to the plate wells before the addition of other reaction components. The final concentration of DMSO in the assay was 2%. The PI3Kγ assay was carried out at room temperature in 20 mM MOPS, pH 6.7, 10 mM MgCl2, 5 mM DTT and CHAPS 0.03%. Reactions were initiated by the addition of ATP, the final reaction mixture consisted of 20 μM PIP2, 2 μM ATP, 0.5 μCi [γ-33P] ATP, 13 nM PI3Kγ. Reactions were incubated for 120 min and terminated by the addition of 40 μL SPA beads suspended in quench buffer: 163 mM potassium phosphate pH 7.8, 20% glycerol, 25 mM EDTA. The final concentration of SPA beads is 1.0 mg/mL. After the plate sealing, plates were shaken overnight at room temperature and centrifuged at 1500 rpm for 10 min, the radioactivity of the product was determined by scintillation counting on Topcount (Perkin-Elmer).
For orientation: SPA uses beads or plates that emit light when radiolabelled molecules are held near them.

The target in assay [2] is T1, Phosphatidylinositol 4,5-bisphosphate 3-kinase catalytic subunit delta isoform (Homo sapiens, UniProt O00329).
T1 sequence (O00329 whole entry): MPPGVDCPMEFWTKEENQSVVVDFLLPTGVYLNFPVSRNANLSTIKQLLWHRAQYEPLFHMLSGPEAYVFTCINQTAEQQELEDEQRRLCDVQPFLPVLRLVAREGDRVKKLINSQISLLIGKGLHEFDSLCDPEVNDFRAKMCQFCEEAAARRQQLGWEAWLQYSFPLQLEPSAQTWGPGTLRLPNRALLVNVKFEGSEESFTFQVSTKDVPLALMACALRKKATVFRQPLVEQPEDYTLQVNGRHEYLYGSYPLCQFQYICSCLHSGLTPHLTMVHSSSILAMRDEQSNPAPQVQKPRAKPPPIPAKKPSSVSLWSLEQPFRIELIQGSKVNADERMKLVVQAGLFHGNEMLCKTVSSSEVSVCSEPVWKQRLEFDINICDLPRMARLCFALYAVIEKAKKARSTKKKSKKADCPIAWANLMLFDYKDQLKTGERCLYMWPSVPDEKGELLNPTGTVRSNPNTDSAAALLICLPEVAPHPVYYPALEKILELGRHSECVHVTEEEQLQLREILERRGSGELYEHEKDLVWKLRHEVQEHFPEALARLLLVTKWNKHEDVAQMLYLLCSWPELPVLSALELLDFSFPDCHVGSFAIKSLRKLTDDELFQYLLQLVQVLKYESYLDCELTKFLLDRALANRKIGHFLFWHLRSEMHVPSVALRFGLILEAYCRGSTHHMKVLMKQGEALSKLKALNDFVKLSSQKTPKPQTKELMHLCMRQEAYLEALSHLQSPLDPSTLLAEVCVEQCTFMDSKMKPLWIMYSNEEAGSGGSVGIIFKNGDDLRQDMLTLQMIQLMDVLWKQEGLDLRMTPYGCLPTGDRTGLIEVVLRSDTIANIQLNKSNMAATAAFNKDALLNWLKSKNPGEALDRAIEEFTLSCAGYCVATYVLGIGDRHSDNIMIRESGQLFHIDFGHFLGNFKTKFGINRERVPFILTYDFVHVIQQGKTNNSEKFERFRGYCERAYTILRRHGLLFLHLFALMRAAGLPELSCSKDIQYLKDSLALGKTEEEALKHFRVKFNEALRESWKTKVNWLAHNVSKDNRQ
In words: Scintillation Proximity Assay. From the text:
PI3Kδ: [γ-33P]ATP (10 mCi/mL) and Wheat Germ Agglutinin (WGA) YSi SPA Scintillation Beads was purchased from PerkinElmer (Waltham, Mass.). Lipid kinase substrate, D-myo-Phosphatidylinositol 4,5-bisphosphate (PtdIns(4,5)P2)D (+)-sn-1,2-di-O-octanoylglyceryl, 3-O-phospho linked (PIP2), CAS 204858-53-7, was purchased from Echelon Biosciences (Salt Lake City, Utah). PI3Kδ (p110δ/p85α) Recombinant Human Protein was purchased from Eurofins. ATP, MgCl2, DTT, EDTA, MOPS and CHAPS were purchased from SigmaAldrich.The kinase reaction was conducted in polystyrene 384-well Greiner Bio-one white plate from Thermo Fisher Scientific in a final volume of 25 μL. Inhibitors were first diluted serially in DMSO and added to the plate wells before the addition of other reaction components. The final concentration of DMSO in the assay was 2%. The PI3Kδ assay was carried out at room temperature in 20 mM MOPS, pH 6.7, 10 mM MgCl2, 5 mM DTT and CHAPS 0.03%. Reactions were initiated by the addition of ATP, the final reaction mixture consisted of 20 μM PIP2, 2 μM ATP, 0.5 μCi [γ-33P] ATP, 3.4 nM PI3Kδ. Reactions were incubated for 120 min and terminated by the addition of 40 μL SPA beads suspended in quench buffer: 163 mM potassium phosphate pH 7.8, 20% glycerol, 25 mM EDTA. The final concentration of SPA beads is 1.0 mg/mL. After the plate sealing, plates were shaken overnight at room temperature and centrifuged at 1500 rpm for 10 min, the radioactivity of the product was determined by scintillation counting on Topcount.

In general, IC50 refers to the point on the concentration scale where inhibition reaches its midpoint. A higher IC50 goes with weaker potency in that assay.

Sequence of Phosphatidylinositol 4,5-bisphosphate 3-kinase catalytic subunit gamma isoform (P48736 whole entry, canonical isoform): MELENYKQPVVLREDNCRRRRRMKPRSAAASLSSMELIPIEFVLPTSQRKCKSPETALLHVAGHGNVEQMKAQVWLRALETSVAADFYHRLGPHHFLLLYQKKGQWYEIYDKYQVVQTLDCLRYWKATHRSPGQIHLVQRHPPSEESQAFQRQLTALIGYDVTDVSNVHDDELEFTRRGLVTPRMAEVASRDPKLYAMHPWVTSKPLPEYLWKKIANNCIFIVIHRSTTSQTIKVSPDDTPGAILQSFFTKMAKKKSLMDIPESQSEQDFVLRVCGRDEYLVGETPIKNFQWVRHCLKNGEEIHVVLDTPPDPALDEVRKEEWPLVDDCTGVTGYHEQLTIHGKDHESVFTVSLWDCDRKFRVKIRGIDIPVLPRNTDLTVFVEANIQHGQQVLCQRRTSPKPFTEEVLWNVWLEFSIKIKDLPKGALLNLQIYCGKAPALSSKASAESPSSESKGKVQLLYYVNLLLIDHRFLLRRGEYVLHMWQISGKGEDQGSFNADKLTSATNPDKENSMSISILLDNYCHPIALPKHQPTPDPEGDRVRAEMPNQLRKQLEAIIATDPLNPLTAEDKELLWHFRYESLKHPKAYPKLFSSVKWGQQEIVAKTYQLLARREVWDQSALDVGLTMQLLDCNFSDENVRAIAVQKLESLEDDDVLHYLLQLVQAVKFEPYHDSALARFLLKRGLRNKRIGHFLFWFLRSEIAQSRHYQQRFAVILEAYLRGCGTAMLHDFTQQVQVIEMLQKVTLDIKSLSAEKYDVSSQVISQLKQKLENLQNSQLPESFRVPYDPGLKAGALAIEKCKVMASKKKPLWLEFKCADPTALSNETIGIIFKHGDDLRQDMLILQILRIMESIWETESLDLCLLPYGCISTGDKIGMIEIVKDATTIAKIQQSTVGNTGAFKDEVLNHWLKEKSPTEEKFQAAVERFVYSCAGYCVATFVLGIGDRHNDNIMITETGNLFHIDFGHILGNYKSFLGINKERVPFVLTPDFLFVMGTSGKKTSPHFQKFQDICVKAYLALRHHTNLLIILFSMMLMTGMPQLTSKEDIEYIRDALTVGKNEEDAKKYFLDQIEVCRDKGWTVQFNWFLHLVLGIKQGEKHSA

Consider `Cc1ccc(C(C)C(F)(F)F)cc1-c1cnc2c(N)nc(-c3cnco3)cn12` (stereo unspecified) [US10738057, Example 71], for which the IC50 in assay [1] and in assay [2] was under 100 nM in each case.

Consider `Cc1ccc(C(C)C(F)(F)F)cc1-c1cnc2c(N)nc(-c3cnn(C)c3)cn12` (stereo unspecified) [US10738057, Example 69], for which the IC50 in assay [1] and in assay [2] was under 100 nM each time.

For the compound `Cc1ncc(-c2cn3c(-c4cc(C(C)C(F)(F)F)ccc4C)cnc3c(N)n2)s1` (stereo unspecified) [US10738057, Example 70], the IC50 in assay [1] and in assay [2] was under 100 nM in each case.
